# Data reported in PubChem BioAssay (NCI).
#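 At the GI50, growth is halved. TGI: total growth inhibition.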
# Legend:
# Assay in all cases: growth of human tumour cells (NCI), 384-well format
# [1] = tested on: 786-0 renal
# [2] = tested on: A498 renal
# [3] = tested on: A549 NSCLC
# [4] = tested on: ACHN renal
# [5] = tested on: BT-549 breast
# [6] = tested on: CAKI-1 renal
# [7] = tested on: CCRF-CEM leukemia
# [8] = tested on: COLO 205 colon
# [9] = tested on: DU-145 prostate
# [10] = tested on: EKVX NSCLC
# [11] = tested on: HCC-2998 colon
# [12] = tested on: HCT-116 colon
# [13] = tested on: HCT-15 colon
# [14] = tested on: HL-60(TB) leukemia
# [15] = tested on: HOP-62 NSCLC
# [16] = tested on: HOP-92 NSCLC
# [17] = tested on: HS 578T breast
# [18] = tested on: IGROV1 ovarian
# [19] = tested on: K-562 leukemia
# [20] = tested on: LOX IMVI melanoma
# [21] = tested on: M14 melanoma
# [22] = tested on: MALME-3M melanoma
# [23] = tested on: MCF7 breast
# [24] = tested on: MDA-MB-231 breast
# [25] = tested on: MDA-MB-435 melanoma
# [26] = tested on: MDA-MB-468 breast
# [27] = tested on: MOLT-4 leukemia
smiles,measurement,setting,value
COc1cc(OC)cc(N2CCN(C(=O)Nc3nc4cc(F)ccc4nc3OC)CC2)c1,GI50,[1],28.4 nM
same,TGI,[1],267 nM
same,GI50,[2],< 10 nM
same,TGI,[2],96.6 nM
same,GI50,[3],38.2 nM
same,TGI,[3],18500 nM
same,GI50,[4],65.7 nM
same,TGI,[4],20200 nM
same,GI50,[5],23.7 nM
same,TGI,[5],68.5 nM
same,GI50,[6],15.8 nM
same,TGI,[6],15100 nM
same,GI50,[7],18.7 nM
same,TGI,[7],33.3 nM
same,GI50,[8],27.7 nM
same,TGI,[8],84.8 nM
same,GI50,[9],34.7 nM
same,TGI,[9],249 nM
same,GI50,[10],27.5 nM
same,TGI,[10],14600 nM
same,GI50,[11],20.7 nM
same,TGI,[11],76.9 nM
same,GI50,[12],31.2 nM
same,TGI,[12],151 nM
same,GI50,[13],22.4 nM
same,TGI,[13],1180 nM
same,GI50,[14],16.5 nM
same,TGI,[14],30.6 nM
same,GI50,[15],21.8 nM
same,TGI,[15],1700 nM
same,GI50,[16],48.3 nM
same,TGI,[16],15600 nM
same,GI50,[17],17 nM
same,TGI,[17],35.6 nM
same,GI50,[18],42.5 nM
same,TGI,[18],15000 nM
same,GI50,[19],17.4 nM
same,TGI,[19],43.3 nM
same,GI50,[20],39.8 nM
same,TGI,[20],380 nM
same,GI50,[21],15.7 nM
same,TGI,[21],38.2 nM
same,GI50,[22],24.7 nM
same,TGI,[22],14800 nM
same,GI50,[23],26.2 nM
same,TGI,[23],5570 nM
same,GI50,[24],54.5 nM
same,TGI,[24],84700 nM
same,GI50,[25],< 10 nM
same,TGI,[25],21.2 nM
same,GI50,[26],16.1 nM
same,TGI,[26],32.1 nM
same,GI50,[27],18.2 nM
same,TGI,[27],32.8 nM
